{
  "source": "patent US6800101B2",
  "about": "“Deactivatable biocides for hydrocarbonaceous products” (priority 2001, dated 2004)",
  "key": {"bacteria": {"tested_on": "bacteria", "assay_type": "cell-based"}, "alkane degrading culture": {"tested_on": "alkane degrading culture", "assay": "Evaluation of biocides: growth inhibition on FT diesel and ALAD diesel; for microbial growth: key: −: No Growth; +: Growth (White Unless Otherwise Indicated)", "assay_type": "cell-based", "method": "Growth Media: A standard minimal media containing only inorganic nutrients required for bacterial growth was used. The medium used to supply inorganic micronutrients to the growing culture of alkane degrading organisms consisted of 0.1 g/L MgSO4.7H2O, 0.5 g/L NaNO3, 0.02 millimolar FeSO4 and 0.63 g/L K2HPO4 and 0.19 g/L KH2PO4 to achieve a pH of 7 to 7.3.\nTest Conditions: 90 ml of growth media and 10 ml of either FT diesel or low sulfur (ALAD) diesel was added to 250 ml flasks. […] In addition to 2 alkynes, glutaraldehyde (glutaric dialdehyde 50%), was tested. The following summarizes the test conditions:\nSterile control (media boiled prior to adding FT or ALAD, not inoculated)\nInculated control (no inhibitor)\n100 ppm inhibitor (on a total test volume basis or 1000 ppm in diesel)\n1% inhibitor (on a total test volume basis or 10% in diesel).\nAfter inoculation, the flasks were place on a shaker-table (135 rpm) at room temperature and observed daily."}, "[1]": {"tested_on": "Larval Sheepshead Minnow (Cyprinodon variegatus)", "assay": "in vivo", "assay_type": "in vivo", "method": "(§1) […]. EPA/600/4-90/027F Washington D.C. section 2.02, paragraph 1.) conducted at Pacific Eco-Risk Laboratories, Martinez, Calif.\n(§2) LOEC is the Lowest Observable Effect Concentration and is defined as the minimum concentration where mortality is observed for the test species. […] LC-50, the concentration that will cause mortality of 50% of the organisms tested within 96 h, is a calculated value based on all observations.\n(§3) The solutions were mixed for 48 hours prior to the start of the bioassays. The solutions were diluted to perform bioassays at starting glutaraldehyde concentrations of 100, 50, 37.5, 25, and 10, 5 mg/L"}, "in vivo": {"assay": "in vivo", "assay_type": "in vivo", "conditions": "Cyprinodon variegatus (sheepshead minnow), in vivo", "method": "as §1, §2, §3"}, "[2]": {"conditions": "Cyprinodon variegatus (sheepshead minnow), in vivo, 96 h"}},
  "data": [
    {"compound": "O=CCCCC=O", "note": "[G, glutaraldehyde]", "values": [
      {"measurement": "microbial growth", "setting": "bacteria", "value": "no growth"},
      {"measurement": "effectiveness as biocide", "setting": "alkane degrading culture; ALAD diesel fuel", "value": "effective at a lower concentration"},
      {"measurement": "microbial growth", "setting": "alkane degrading culture; FT Diesel + 1 Wt %, Day 0", "value": "−"},
      {"measurement": "microbial growth", "setting": "alkane degrading culture; FT Diesel + 1 Wt %, Day 1", "value": "−"},
      {"measurement": "microbial growth", "setting": "alkane degrading culture; FT Diesel + 1 Wt %, Day 5", "value": "−"},
      {"measurement": "microbial growth", "setting": "alkane degrading culture; FT Diesel + 1 Wt %, Day 7", "value": "−"},
      {"measurement": "microbial growth", "setting": "alkane degrading culture; FT Diesel + 1 Wt %, Day 8", "value": "−"},
      {"measurement": "microbial growth", "setting": "alkane degrading culture; FT Diesel + 1 Wt %, Day 19", "value": "−"},
      {"measurement": "microbial growth", "setting": "alkane degrading culture; FT Diesel + 100 ppm, Day 0", "value": "−"},
      {"measurement": "microbial growth", "setting": "alkane degrading culture; FT Diesel + 100 ppm, Day 1", "value": "−"},
      {"measurement": "microbial growth", "setting": "alkane degrading culture; FT Diesel + 100 ppm, Day 5", "value": "−"},
      {"measurement": "microbial growth", "setting": "alkane degrading culture; FT Diesel + 100 ppm, Day 7", "value": "−"},
      {"measurement": "microbial growth", "setting": "alkane degrading culture; FT Diesel + 100 ppm, Day 8", "value": "−"},
      {"measurement": "microbial growth", "setting": "alkane degrading culture; FT Diesel + 100 ppm, Day 19", "value": "+"},
      {"measurement": "effectiveness as biocide", "setting": "alkane degrading culture; Fischer-Tropsch diesel fuel", "value": "effective at a lower concentration"},
      {"measurement": "microbial growth", "setting": "alkane degrading culture; LA (ALAD) Diesel + 1 Wt %, Day 0", "value": "−"},
      {"measurement": "microbial growth", "setting": "alkane degrading culture; LA (ALAD) Diesel + 1 Wt %, Day 1", "value": "−"},
      {"measurement": "microbial growth", "setting": "alkane degrading culture; LA (ALAD) Diesel + 1 Wt %, Day 5", "value": "−"},
      {"measurement": "microbial growth", "setting": "alkane degrading culture; LA (ALAD) Diesel + 1 Wt %, Day 7", "value": "−"},
      {"measurement": "microbial growth", "setting": "alkane degrading culture; LA (ALAD) Diesel + 1 Wt %, Day 8", "value": "−"},
      {"measurement": "microbial growth", "setting": "alkane degrading culture; LA (ALAD) Diesel + 1 Wt %, Day 19", "value": "−"},
      {"measurement": "microbial growth", "setting": "alkane degrading culture; LA (ALAD) Diesel + 100 ppm, Day 0", "value": "−"},
      {"measurement": "microbial growth", "setting": "alkane degrading culture; LA (ALAD) Diesel + 100 ppm, Day 1", "value": "−"},
      {"measurement": "microbial growth", "setting": "alkane degrading culture; LA (ALAD) Diesel + 100 ppm, Day 5", "value": "−"},
      {"measurement": "microbial growth", "setting": "alkane degrading culture; LA (ALAD) Diesel + 100 ppm, Day 7", "value": "−"},
      {"measurement": "microbial growth", "setting": "alkane degrading culture; LA (ALAD) Diesel + 100 ppm, Day 8", "value": "−"},
      {"measurement": "microbial growth", "setting": "alkane degrading culture; LA (ALAD) Diesel + 100 ppm, Day 19", "value": "−"},
      {"measurement": "LOEC", "setting": "[1]; [2]", "value": 25, "unit": "mg/L"},
      {"measurement": "NOEC", "setting": "[1]; [2]", "value": 13, "unit": "mg/L"},
      {"measurement": "LC50", "setting": "[1]; second experiment, Glutaraldehyde 100 mg/L, MEA 125 mg/L, molar ratio 1:2, mixed 48 hours", "value": ">100", "unit": "µg/mL"},
      {"measurement": "LC50 at 96 h", "setting": "in vivo", "value": "> 100", "unit": "µg/mL"}
    ]}
  ]
}
